Assays:
human macrophages = assay: Human macrophage cell culture assay, surface marker expression (MFI) by flow cytometry; assay type: cell-based; settings: MAD-PAC3.5 or equal molar equivalent concentration of free paclitaxel; vs no drug control
Description: In this assay, human peripheral blood monocytes (hPBMCs) were incubated for five days in RPMI+10% FBS+1x Penicillin/Streptomycin/L-glutamine+5Ong/mlGM-CSF (complete medium) at a concentration of 500,000 monocytes per well in 48 well tissue culture plates. […] GM-CSF induces the macrophages to adopt an activated phenotype that is intermediate between the extremes of M1 or M2. […] Saline and Vehicle (MAD without a drug payload, 23.3 μg/ml) were added as alternative supplements to other cultures as negative controls. The macrophage cell cultures were incubated with the supplemented complete medium for 24 hours after which it was removed and replaced with fresh complete medium. The macrophage cultures were then incubated for an additional three days. The three-day post treatment incubation was performed to permit assessment of durable changes in macrophage phenotypes.
After the additional three-day incubation in fresh complete medium, the cells were harvested and evaluated by flow cytometry for viability (DAPI) or expression of macrophage surface markers. These markers are representative of markers that are frequently considered as indicative of either M1-like or M2-like phenotypes or are known immune checkpoint receptors. The evaluated cell surface markers included CD206, CD163, CD80, CD86, MHC1, MHC2, SIRPa, and PD-1 using antibodies specific for each marker. […] The outputs of the flow cytometry assays were mean fluorescent intensities (MFI). Macrophages differentiated from monocytes collected from three separate donors were evaluated for all treatments. For each donor's macrophages, all experiments were run in triplicate.

CT26 cells = assay: CT26/Balb-c syngeneic mouse tumor model; assay type: in vivo; settings: intravenous injections on treatment days 1, 4, 7 and 11; MAD-PAC3.5 127 μg/injection, free paclitaxel molar equivalent
Description: Mice were implanted with CT26 cells that were permitted to grow and become established until they had attained tumor volumes of 80-100 mm 3. Tumor bearing mice (n=10/treatment group) were administered test articles by intravenous injections on 4 days (treatment days, 1, 4, 7, and 11). […] Tumor volumes were measured and recorded at regular intervals.

## CC(=O)O[C@H]1C(=O)[C@@]2(C)[C@H]([C@H](OC(=O)c3ccccc3)[C@]3(O)C[C@H](OC(=O)[C@H](O)[C@@H](NC(=O)c4ccccc4)c4ccccc4)C(C)=C1C3(C)C)[C@]1(OC(C)=O)CO[C@@H]1C[C@@H]2O [free paclitaxel, paclitaxel]
Human macrophages
  expression of CD80: increased the expression
  expression of CD86: increased the expression
  expression of CD163: modestly increased expression
  expression of CD206: modestly increased expression
  expression of MHC1: not significantly altered
  expression of MHC2: not significantly altered
  expression of PD1: not by free paclitaxel
  expression of SIRPa: not significantly altered
CT26 cells
  mean tumor volume on treatment day 14 compared to saline: modestly decreased mean tumor volumes
